Data: patent US20130202698A1 (NANJING SANHOME PHARMACEUTICAL CO., LTD., priority 2005, published 2013)
Like-named read-outs stand apart in the source and are kept apart here. Marks after values point to notes of the source that are not given here.

Tests used:
[1] = test system: motor balance and coordination; details: both, mouse, in vivo
Description: Motor balance and coordination were tested using a modified beam walking method. Mice were put on a smooth beam tilted at an angle of 70 degree. Mice passed the test by standing on the beam for 0.5 minute without falling off. All the mice were pre-screened before the studies, and a total of 110 mice were selected by passing the beam test in 3 consecutive tries. The selected mice were divided into 11 groups with 10 mice in each group (half male and half female). At certain time points after drug administration, mice were tested on the beam for 3 consecutive times. A mouse was counted as failing to the test if it fell off the beam for 2 or more times.
The dose volume was 0.2 mL/10 gram and infusion rate was 0.2 mL/10 seconds. Chlorpromazine was used as the positive control.

trichomonas vaginalis = assay: Pharmacodynamic study of trichomonas vaginalis infection in mice; assay type: in vivo; set-up: ED90: unit not given beside the values; details: for ED50: Trichomonas vaginalis; for ED90: dosage of 90% inhibition rate
Description: Male ICR mice were injected intraperitoneally with liquid containing 0.4 ml 3×10^6 trichomonas vaginalis (trichomonas vaginalis from clinical patients). The mice were randomly divided into 19 groups, each with 10. The mice in solvent control group were given blank solutions by tail vein injection. The treatment groups were injected intravenously at 2, 24, 48, and 72 hours after infection with active drugs. The animals were killed five days after infection. Washing offal, fluid was centrifuged, and microscopically examined for life larvae. Autopsy was performed to determine whether there was any visceral and abdominal abscess, microscopic examination was conducted to determine the number of live trichomoniasis in the abscess. […] The abscess formation was inhibited in the treatment groups[…] and the number of live trichomoniasis was reduced. Calculate the dosage of 50% (ED50) and 90% (ED90) inhibition rate.

Beagle dogs = test system: Beagle dogs
Description: In the studies, male and female Beagle dogs were treated at high doses of ornidazole enantiomers for 2 weeks, and then sacrificed for anatomical and pathological examinations. […] All the doses were administered in the levo- and racemate groups.

righting reflex = assay: Hypnotic effect, loss of righting reflex; assay type: in vivo, mice
Description: Thirty minutes after drug administration, the number of animals losing righting reflex (LORR) was recorded. […] Sodium pentobarbital was used at […] as the positive control.

amoeba dysentery = assay: Pharmacodynamic study of cecum amoeba infection in mice; assay type: in vivo; details: male ICR mice infected in the cecum, drug i.v. at 24, 48, 72 hours; for ED50: Mus musculus, iv, dosage of 50% inhibition rate; for ED90: dosage of 90% inhibition rate
Description: Male ICR mice were injected with liquid containing about 200,000 units of amoeba dysentery in the cecum. The mice were randomly divided into 19 groups, each with 10. The mice in solvent control group were given blank solutions by tail vein injection. The treatment groups were injected intravenously at 24, 48, 72 hours after infection with active drugs. The animals were killed six days after infection. Intestinal mucosal biopsies were done, and comparative studies of different stages of the amoeba were studied under microscope. […] Calculated the dosage of 50% (ED50) and 90% (ED90) inhibition rate.

[2] = test system: isoniazid-induced convulsion; assay: Anticonvulsant effects on isoniazid-induced convulsion in mice; assay type: in vivo; details: Mean ± SD, n=10
Description: Mice are randomized into 4 treatment groups (n=10 with half male and half female): dextro- or levo-ornidazole (dosage 40, 80, 160 mg/kg), vehicle control group (15% propylene glycol in 0.9% sodium chloride, 20 mL/kg) and the positive control group. Animals are treated with known convulsion-inducing agents, followed by the drug or vehicle control given intravenously. The dose volume is 20 mL/kg with an infusion rate of 0.2 mL/10 seconds. The anticonvulsant effects are observed and recorded (see Tables 2-6).

[3] = Phase II clinical trial, intravenous, adverse events; assay type: in vivo, human; details: human phase II, I.V.
Description: A double-blinded randomized controlled trial was carried out to compare the adverse events between the I.V. levo-ornidazole and racemate treatment groups. […] The high rate of adverse events observed from the treatment by the racemic drug caused patient treatment non-compliant, which could be dangerous for life-threatening infections.

[4] = Phase II clinical trial, oral tablets, departments of stomatology, adverse events; assay type: in vivo, human; details: human phase II, oral, stomatology
Description: Double-blinded randomized controlled trials were carried out to compare the adverse events of oral levo-ornidazole with racemate treatment groups. Two separate studies were conducted for patients with infections from either department of stomatology or obstetrics/gynecology.

[5] = male ICR mice infected intraperitoneally, drug i.v. at 2, 24, 48, 72 hours

Compound: Cc1ncc([N+](=O)[O-])n1C[C@@H](O)CCl [D-ornidazole, R-(+)-ornidazole]
- Number of Animals Fall Off ([1]; 40 mg/kg, 0.5 h): 0
- Number of Animals Fall Off ([1]; 40 mg/kg, 1 h): 1
- Number of Animals Fall Off ([1]; 40 mg/kg, 2 h): 2
- Number of Animals Fall Off ([1]; 40 mg/kg, 3 h): 3
- Number of Animals Fall Off ([1]; 40 mg/kg, 4 h): 0
- Number of Animals Fall Off ([1]; 80 mg/kg, 0.5 h): 3
- Number of Animals Fall Off ([1]; 80 mg/kg, 1 h): 3
- Number of Animals Fall Off ([1]; 80 mg/kg, 2 h): 2
- Number of Animals Fall Off ([1]; 80 mg/kg, 3 h): 1
- Number of Animals Fall Off ([1]; 80 mg/kg, 4 h): 0
- Number of Animals Fall Off ([1]; 160 mg/kg, 0.5 h): 10##
- Number of Animals Fall Off ([1]; 160 mg/kg, 1 h): 10##
- Number of Animals Fall Off ([1]; 160 mg/kg, 2 h): 10##
- Number of Animals Fall Off ([1]; 160 mg/kg, 3 h): 10##
- Number of Animals Fall Off ([1]; 160 mg/kg, 4 h): 9##
- ED50 (trichomonas vaginalis; male ICR mice infected intraperitoneally, drug i.v. at 2, 24, 48, 72 hours, dosage of 50% inhibition rate, read-out: ED50): 14.1 mg/kg
- ED90 (trichomonas vaginalis; [5]): 54.5
- Toxicity Severity (Beagle dogs; dog, in vivo, iv, 200 mg/kg): Severe
- Number of animals Loss of Righting Flex 30 min Post-dose (righting reflex; both, mouse, in vivo, 40 mg/kg, 30 min): 0
- Number of animals Loss of Righting Flex 30 min Post-dose (righting reflex; both, mouse, in vivo, 80 mg/kg, 30 min): 0
- ED50 (amoeba dysentery): 13.3 mg/kg
- ED90 (amoeba dysentery): 64.4
- Convulsion Latency ([2]; 40 mg/kg i.v.): 43.2 ± 5.4 min
- Time to Death ([2]; 40 mg/kg i.v.): 53.6 ± 7.2 min
- Convulsion Latency ([2]; 80 mg/kg i.v.): 46.1 ± 2.2 min
- Time to Death ([2]; 80 mg/kg i.v.): 57.0 ± 7.3 min
- Convulsion Latency ([2]; 160 mg/kg i.v.): 48.3 ± 14.1 min
- Time to Death ([2]; 160 mg/kg i.v.): 81.5 ± 15.8 min

Compound: Cc1ncc([N+](=O)[O-])n1CC(O)CCl (racemic) [Racemic ornidazole, 1-(3-Chloro-2-hydroxypropyl)-2-methyl-5-nitroimidazole]
- ED50 (trichomonas vaginalis; 72 h): 11.3 mg/kg
- ED90 (trichomonas vaginalis; [5]): 43.8
- Toxicity Severity (Beagle dogs; Beagle dogs, I.V. 200 mg/kg for 2 weeks): Moderate
- Number of animals Loss of Righting Flex 30 min Post-dose (righting reflex; mice, 40 mg/kg, 10 animals): 0
- Number of animals Loss of Righting Flex 30 min Post-dose (righting reflex; mice, 80 mg/kg, 10 animals): 0
- Number of animals Loss of Righting Flex 30 min Post-dose (righting reflex; mice, 160 mg/kg, 10 animals, listed as Racemate): 6*^#
- Number of animals Loss of Righting Flex 30 min Post-dose (righting reflex; mice, 160 mg/kg, 10 animals, listed as racemate): 6
- Adverse events reported (total) [3]: 42
- Appetite drop, # of Patients with AE [3]: 0
- Appetite drop, Incidence (%) [3]: 0.00%
- Dizziness, # of Patients with AE [3]: 5
- Dizziness, Incidence (%) [3]: 3.60%
- Dry mouth, # of Patients with AE [3]: 2
- Dry mouth, Incidence (%) [3]: 1.44%
- Headache, # of Patients with AE [3]: 1
- Headache, Incidence (%) [3]: 0.72%
- Hypersomnia, # of Patients with AE [3]: 10
- Hypersomnia, Incidence (%) [3]: 7.19^## %
- Hypodynamia, # of Patients with AE [3]: 1
- Hypodynamia, Incidence (%) [3]: 0.72%
- Nausea, # of Patients with AE [3]: 1
- Nausea, Incidence (%) [3]: 0.72%
- Stomach discomfort, # of Patients with AE [3]: 1
- Stomach discomfort, Incidence (%) [3]: 0.72%
- Total incidence rate of adverse events [3]: 21.58%
- Vertigo, # of Patients with AE [3]: 17
- Vertigo, Incidence (%) [3]: 12.23^## %
- Vomiting, # of Patients with AE [3]: 1
- Vomiting, Incidence (%) [3]: 0.72%
- WBC decline, # of Patients with AE [3]: 3
- WBC decline, Incidence (%) [3]: 2.16%
- Patients with adverse events (total) ([3]; out of 136 (levo) / 139 (racemate) patients): 30 patients
- ED50 (amoeba dysentery): 11.4 mg/kg
- ED90 (amoeba dysentery): 55.2
- Bloating, # of Patients with AE [4]: 1
- Bloating, Incidence (%) [4]: 0.71%
- Constipation, # of Patients with AE [4]: 0
- Constipation, Incidence (%) [4]: 0.00%
- Drowsy, # of Patients with AE [4]: 3
- Drowsy, Incidence (%) [4]: 2.13%
- Dry mouth, # of Patients with AE [4]: 1
- Dry mouth, Incidence (%) [4]: 0.71%
- Headache, # of Patients with AE [4]: 1
- Headache, Incidence (%) [4]: 0.71%
- Hypersomnia, # of Patients with AE [4]: 6
- Hypersomnia, Incidence (%) [4]: 4.26%
- Hypodynamia, # of Patients with AE [4]: 1
- Hypodynamia, Incidence (%) [4]: 0.71%
- Loss of appetite, # of Patients with AE [4]: 1
- Loss of appetite, Incidence (%) [4]: 0.71%
- Nausea, # of Patients with AE [4]: 4
- Nausea, Incidence (%) [4]: 2.84%
- Palpitation, # of Patients with AE [4]: 1
- Palpitation, Incidence (%) [4]: 0.71%
- Pruritus, # of Patients with AE [4]: 1
- Pruritus, Incidence (%) [4]: 0.71%
- Rash, # of Patients with AE [4]: 2
- Rash, Incidence (%) [4]: 1.42%
- Sourregurgitation, # of Patients with AE [4]: 1
- Sourregurgitation, Incidence (%) [4]: 0.71%
- Stomach discomfort, # of Patients with AE [4]: 7
- Stomach discomfort, Incidence (%) [4]: 4.96%
- Stupor, # of Patients with AE [4]: 1
- Stupor, Incidence (%) [4]: 0.71%
- Total incidence rate of adverse events [4]: 17.73%
- Vertigo, # of Patients with AE [4]: 2
- Vertigo, Incidence (%) [4]: 1.42%
- Vomiting, # of Patients with AE [4]: 1
- Vomiting, Incidence (%) [4]: 0.71%
- Patients with adverse events (total) ([4]; out of 139 (levo) / 141 (racemate) patients): 25 patients
